The text below walks through data of article PMC4798942 (ACS chemical biology, 2015).

Read-outs that look alike come from different tables or passages of the source.

What all share (format): biochemical
Experiment [1] has as its target T1, human CP4H1 (collagen prolyl 4-hydroxylase 1, alpha(I)2beta2 holoenzyme) (Homo sapiens, UniProt P13674). The experiment can be described thus: inhibition of CP4H1 activity in vitro. Particulars: 100 µM compound.
For experiment [2], the target named is T1, human CP4H1 (collagen prolyl 4-hydroxylase 1, alpha(I)2beta2 holoenzyme). In words: dose-response inhibition of CP4H1 hydroxylation activity.
For experiment [3] the target is unchanged. In words: Lineweaver-Burk analysis of CP4H1 activity.
The target of experiment [4] is human PHD2 (Homo sapiens, UniProt Q9GZT9). In words: inhibition of PHD2 activity in vitro.
Sequence of human PHD2 (Q9GZT9 2-426): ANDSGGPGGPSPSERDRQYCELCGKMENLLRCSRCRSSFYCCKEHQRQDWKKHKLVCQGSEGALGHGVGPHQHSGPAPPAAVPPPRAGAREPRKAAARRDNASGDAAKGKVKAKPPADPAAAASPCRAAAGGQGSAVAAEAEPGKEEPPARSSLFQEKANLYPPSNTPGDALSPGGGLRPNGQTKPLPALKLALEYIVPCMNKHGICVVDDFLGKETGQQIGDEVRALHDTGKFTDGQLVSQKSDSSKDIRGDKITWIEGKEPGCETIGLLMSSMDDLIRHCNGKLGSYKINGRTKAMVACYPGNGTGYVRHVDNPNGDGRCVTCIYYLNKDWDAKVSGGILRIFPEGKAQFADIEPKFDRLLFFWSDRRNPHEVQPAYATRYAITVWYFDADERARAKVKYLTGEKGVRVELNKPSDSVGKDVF
[5] abbreviates: Fe(II) and AKG dependent reaction.

T1 sequence (P13674 18-534): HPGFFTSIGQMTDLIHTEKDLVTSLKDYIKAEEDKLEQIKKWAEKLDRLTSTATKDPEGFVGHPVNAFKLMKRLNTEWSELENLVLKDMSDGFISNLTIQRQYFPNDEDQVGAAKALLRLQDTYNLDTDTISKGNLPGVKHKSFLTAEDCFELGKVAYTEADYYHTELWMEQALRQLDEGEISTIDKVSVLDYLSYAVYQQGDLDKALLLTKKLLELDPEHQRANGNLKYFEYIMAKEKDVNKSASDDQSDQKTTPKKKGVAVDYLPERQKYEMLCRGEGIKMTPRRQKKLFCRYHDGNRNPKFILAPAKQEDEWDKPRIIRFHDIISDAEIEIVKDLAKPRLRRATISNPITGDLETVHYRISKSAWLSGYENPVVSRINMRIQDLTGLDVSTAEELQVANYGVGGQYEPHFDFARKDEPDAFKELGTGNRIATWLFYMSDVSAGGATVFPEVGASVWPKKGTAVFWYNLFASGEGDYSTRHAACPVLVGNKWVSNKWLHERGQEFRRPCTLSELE
T1 sequence (P07237 18-508 partner): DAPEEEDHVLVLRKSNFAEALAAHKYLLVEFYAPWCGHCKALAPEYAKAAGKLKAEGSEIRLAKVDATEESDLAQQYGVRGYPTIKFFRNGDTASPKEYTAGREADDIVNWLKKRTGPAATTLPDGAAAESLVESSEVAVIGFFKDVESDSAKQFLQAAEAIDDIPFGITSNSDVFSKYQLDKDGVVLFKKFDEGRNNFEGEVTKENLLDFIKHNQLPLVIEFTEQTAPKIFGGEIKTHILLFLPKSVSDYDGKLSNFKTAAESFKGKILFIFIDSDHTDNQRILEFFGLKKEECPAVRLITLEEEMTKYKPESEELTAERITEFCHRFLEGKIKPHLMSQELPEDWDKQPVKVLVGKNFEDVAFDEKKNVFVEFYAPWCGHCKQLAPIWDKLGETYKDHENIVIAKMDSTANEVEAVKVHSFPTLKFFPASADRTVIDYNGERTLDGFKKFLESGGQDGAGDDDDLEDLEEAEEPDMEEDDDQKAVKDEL

With `CCOC(=O)c1ccc(-c2ncc(C(=O)OCC)s2)nc1` [diethyl pythiDC], the “inhibition at 100 μM” value in experiment [1] is on record as “No inhibition of catalysis by CP4H1 or PHD2 was observed in vitro with these diethyl esters”.

Turning to `O=C(O)c1ccc(-c2ncc(C(=O)O)o2)nc1` [pyoxDC], the IC50 in experiment [2] (setting [5]) worked out at 33 ± 8 µM.

On to `O=C(O)c1ccc(-c2ncc(C(=O)O)s2)nc1` [pythiDC, 2 (5-carboxythiazol-2-yl)pyridine-5-carboxylic acid], for which, in experiment [3], the Ki is 0.39 ± 0.04 µM. Also, in experiment [4], the inhibition entry was “inhibit human PHD2 only weakly (Figure S4), with pythiDC displaying especially low potency”. In experiment [2], the half-inhibitory concentration (IC50) amounted to 4 ± 0.2 µM.

With `O=C(O)c1ccc(-c2ncc(C(=O)O)[nH]2)nc1` [pyimDC], the IC50 in experiment [2] (setting [5]) came to 2.6 ± 0.1 µM.

Broadly, the IC50 is the concentration that inhibits the measured activity by half. Lower therefore signals higher potency. By Ki is commonly meant the dissociation constant of the complex between target and ligand, obtained from inhibition or displacement. Low values mean tighter binding, high ones weaker binding.
